Results as given in US10829478B2, “5-[3-[piperazin-1-yl]-3-oxo-propyl]-imidazolidine-2,4-dione derivatives as ADAMTS 4 and 5 inhibitors for treating e.g. osteoarthritis” (Galapagos NV, priority 2016, dated 2020).
Where two headings read alike, the source gives them in different places.

What was measured:
human ADAMTS6 = human ADAMTS6 (Homo sapiens (Human), UniProt Q9UKP5); assay: hADAMTS-6 fluorescent based protease assay (520 MMP FRET substrate XII); format: biochemical; conditions: 37° C. for 2 h; read-out: hADAMTS-6 potency IC50
Summary of the method: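 ADAMTS6 (0.73 nM final) in 25 mM Tris pH 8.0, 0.05% CHAPS, 2.5 mM CaCl2 with compound dilution series (top 20 μM, 1/5 steps). Reaction started with 520 MMP FRET Substrate XII, incubated 2 h at 37 °C. Substrate cleavage read by fluorescence ex485/em530; IC50 determined.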

rnADAMTS-5 (1-564-6H) = rnADAMTS-5 (1-564-6H) (Rattus norvegicus (Rat), UniProt Q6TY19); assay: Rat ADAMTS-5 TBIS-1 cleavage assay; format: biochemical; conditions: 120 min at 37° C.; read-out: Rat ADAMTS-5 potency IC50
human MMP13 [1] = biological target: T1, human MMP13 (Homo sapiens (Human), UniProt P45452); assay: hMMP13 assay, Protocol 1 (390 MMP FRET Substrate I, Chemicon enzyme); format: biochemical; conditions: Protocol 1, human MMP13 (Chemicon), read-out: hMMP-13 potency IC50
Method: (§1) Human MMP13 is preactivated by incubated the enzyme in the same buffer complemented with 1 mM freshly prepared p-Aminophenylmercuric acetate (AMPA) for 1 h at 37° C.

human TACE = human TACE (Homo sapiens (Human), UniProt P78536); assay: biochemical
Method: Finally, the fluorescence is read on the Envision (Perkin Elmer) after an incubation of 75 min at room temperature (Excitation 485 nm, Emission 530).

human ADAMTS4 = human ADAMTS4 (Homo sapiens (Human), UniProt O75173); assay: hADAMTS-4 TBIS-1 cleavage assay, Protocol 2; format: biochemical
human ADAMTS-5 = human ADAMTS-5 (Homo sapiens (Human), UniProt Q9UNA0); assay: hADAMTS-5 TBIS-1 cleavage assay, Protocol 3; format: biochemical; conditions: 90 min at 37° C., read-out: hADAMTS-5 potency IC50
Method: The reaction is initiated by adding to the assay plate TBIS-1 (10 μL, 4.5 μM, Anaspec) in the same buffer.
Finally, the fluorescence is read on the Envision (Perkin Elmer) after an incubation of 90 min at 37° C. (Excitation 485 nm, emission 530).

human MMP14 = human MMP14 (Homo sapiens (Human), UniProt P50281); assay: hMMP14 assay (390 MMP FRET Substrate I); format: biochemical; conditions: human MMP14 (Biomol), read-out: hMMP-14 potency IC50
Method: The basis for the assay is the cleavage of the substrate 390 MMP FRET Substrate I (Anaspec Cat #AS-27076) by human MMP14 (Biomol, Cat #SE-259).
The reaction is initiated by adding to the assay plate 390 MMP FRET Substrate I (10 μL, 2.5 μM) in the same buffer.
Finally, the fluorescence is read on the Envision (Perkin Elmer) after an incubation of 60 min at room temperature (Excitation 485 nm, Emission 530).

human MMP13 [2] = biological target: T1, human MMP13; assay: hMMP13 assay, Protocol 2 (390 MMP FRET Substrate I, Enzo enzyme); format: biochemical; conditions: Protocol 2, human MMP13 (Enzo Life Sciences), read-out: hMMP-13 potency IC50
Method: as §1

[3] = Protocol 2, 180 min at 37° C., read-out: ADAMTS4 potency IC50

human ADAMTS4, sequence (O75173 213-837): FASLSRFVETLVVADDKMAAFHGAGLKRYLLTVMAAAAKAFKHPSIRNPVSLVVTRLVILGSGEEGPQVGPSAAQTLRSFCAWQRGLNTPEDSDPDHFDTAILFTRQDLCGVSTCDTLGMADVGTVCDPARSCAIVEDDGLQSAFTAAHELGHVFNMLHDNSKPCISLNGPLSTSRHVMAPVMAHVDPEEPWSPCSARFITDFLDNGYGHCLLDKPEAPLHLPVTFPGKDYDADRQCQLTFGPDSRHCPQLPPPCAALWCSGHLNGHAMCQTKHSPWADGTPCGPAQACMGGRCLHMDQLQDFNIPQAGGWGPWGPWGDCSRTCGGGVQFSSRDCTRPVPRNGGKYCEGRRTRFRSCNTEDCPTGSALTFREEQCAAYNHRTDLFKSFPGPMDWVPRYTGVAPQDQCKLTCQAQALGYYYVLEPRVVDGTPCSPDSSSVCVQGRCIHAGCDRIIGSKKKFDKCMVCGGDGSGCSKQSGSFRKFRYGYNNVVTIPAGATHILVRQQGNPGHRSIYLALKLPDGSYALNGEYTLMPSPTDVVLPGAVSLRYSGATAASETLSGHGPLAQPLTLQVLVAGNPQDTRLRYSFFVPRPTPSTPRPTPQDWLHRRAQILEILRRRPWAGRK
human ADAMTS6, sequence (Q9UKP5 other isoform, or with tags, fused parts or gaps): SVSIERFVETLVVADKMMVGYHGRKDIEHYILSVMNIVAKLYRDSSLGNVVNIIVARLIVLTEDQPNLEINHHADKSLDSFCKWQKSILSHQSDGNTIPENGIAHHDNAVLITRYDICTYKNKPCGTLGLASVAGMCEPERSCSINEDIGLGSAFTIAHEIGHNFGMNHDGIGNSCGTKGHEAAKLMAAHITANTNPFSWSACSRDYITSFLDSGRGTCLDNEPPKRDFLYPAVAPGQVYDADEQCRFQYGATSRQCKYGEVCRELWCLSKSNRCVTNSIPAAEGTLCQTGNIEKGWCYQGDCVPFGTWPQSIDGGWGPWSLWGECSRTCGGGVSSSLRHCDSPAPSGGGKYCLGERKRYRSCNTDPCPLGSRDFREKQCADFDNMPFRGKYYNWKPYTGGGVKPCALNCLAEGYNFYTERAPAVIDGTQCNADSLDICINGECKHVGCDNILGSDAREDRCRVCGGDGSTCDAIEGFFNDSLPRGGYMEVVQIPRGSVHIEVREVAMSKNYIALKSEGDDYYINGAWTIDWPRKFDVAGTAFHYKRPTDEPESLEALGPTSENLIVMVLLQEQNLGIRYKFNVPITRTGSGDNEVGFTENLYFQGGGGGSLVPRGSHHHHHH
human TACE, sequence (P78536 215-671): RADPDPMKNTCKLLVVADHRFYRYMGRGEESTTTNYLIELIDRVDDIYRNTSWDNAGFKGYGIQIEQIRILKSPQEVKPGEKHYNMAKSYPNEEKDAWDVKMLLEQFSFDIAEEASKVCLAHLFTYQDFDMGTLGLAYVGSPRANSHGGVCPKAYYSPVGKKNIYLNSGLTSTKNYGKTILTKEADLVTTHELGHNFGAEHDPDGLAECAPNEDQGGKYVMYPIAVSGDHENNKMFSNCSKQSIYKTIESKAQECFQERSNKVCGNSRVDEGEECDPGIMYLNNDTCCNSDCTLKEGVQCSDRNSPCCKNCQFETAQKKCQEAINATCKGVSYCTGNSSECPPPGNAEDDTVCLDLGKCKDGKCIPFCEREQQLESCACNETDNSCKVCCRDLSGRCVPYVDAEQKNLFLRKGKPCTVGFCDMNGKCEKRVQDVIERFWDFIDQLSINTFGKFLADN
human ADAMTS-5, sequence (Q9UNA0 262-930): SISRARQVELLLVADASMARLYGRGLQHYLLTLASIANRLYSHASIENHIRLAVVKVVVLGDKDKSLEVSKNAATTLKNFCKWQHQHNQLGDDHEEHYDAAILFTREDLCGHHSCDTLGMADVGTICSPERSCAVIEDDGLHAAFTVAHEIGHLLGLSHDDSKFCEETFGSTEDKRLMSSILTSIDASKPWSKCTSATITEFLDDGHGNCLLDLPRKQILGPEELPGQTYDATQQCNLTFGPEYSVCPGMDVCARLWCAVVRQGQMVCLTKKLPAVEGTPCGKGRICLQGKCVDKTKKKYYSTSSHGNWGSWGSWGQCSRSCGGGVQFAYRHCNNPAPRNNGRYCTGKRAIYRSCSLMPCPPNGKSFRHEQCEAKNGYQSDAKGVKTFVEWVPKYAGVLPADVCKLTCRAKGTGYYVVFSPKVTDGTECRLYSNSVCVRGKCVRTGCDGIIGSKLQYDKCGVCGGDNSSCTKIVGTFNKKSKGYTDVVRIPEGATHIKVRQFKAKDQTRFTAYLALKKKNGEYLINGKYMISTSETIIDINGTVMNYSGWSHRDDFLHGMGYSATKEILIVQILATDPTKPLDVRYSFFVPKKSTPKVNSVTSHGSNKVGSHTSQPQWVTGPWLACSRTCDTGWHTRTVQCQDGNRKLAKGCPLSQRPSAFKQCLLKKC
rnADAMTS-5 (1-564-6H), sequence (Q6TY19 entry or part of it): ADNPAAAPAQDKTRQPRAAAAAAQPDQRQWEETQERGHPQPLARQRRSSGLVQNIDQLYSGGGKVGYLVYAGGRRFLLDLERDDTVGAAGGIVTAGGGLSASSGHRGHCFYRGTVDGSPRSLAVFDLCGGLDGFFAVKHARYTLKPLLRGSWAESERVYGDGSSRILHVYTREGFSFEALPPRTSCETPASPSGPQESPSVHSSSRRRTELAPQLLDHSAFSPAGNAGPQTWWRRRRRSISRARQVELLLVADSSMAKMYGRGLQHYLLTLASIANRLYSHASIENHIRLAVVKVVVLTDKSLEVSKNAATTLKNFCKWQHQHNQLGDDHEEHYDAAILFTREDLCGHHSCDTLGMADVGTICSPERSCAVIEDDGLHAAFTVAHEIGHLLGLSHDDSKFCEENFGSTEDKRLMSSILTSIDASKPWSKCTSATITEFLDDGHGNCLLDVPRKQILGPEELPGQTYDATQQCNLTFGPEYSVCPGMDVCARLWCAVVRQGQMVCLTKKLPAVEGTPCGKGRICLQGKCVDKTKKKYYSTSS

COc1cc(N2CCN(C(=O)[C@@H](C)C[C@@]3(C)NC(=O)NC3=O)CC2)cc(OC)c1Cl (stereo in doubt) [Cpd 40, 5-[3-[4-(4-chloro-3,5-dimethoxy-phenyl)piperazin-1-yl]-2-methyl-3-oxo-propyl]-5-methyl-imidazolidine-2,4-dione]
IC50 (human ADAMTS6): 0.001 to 25 nM
IC50 (rnADAMTS-5 (1-564-6H)): > 100 nM
IC50 (human MMP13 [1]): > 100 nM
IC50 (human TACE): > 100 nM
IC50 (human ADAMTS4): 25 to 50 nM
IC50 (human ADAMTS-5): 50 to 100 nM

COc1cc(F)cc(N2CCN(C(=O)[C@H](C)C[C@@]3(C4CC4)NC(=O)NC3=O)CC2)c1 (stereo in doubt) [Cpd 130, 5-cyclopropyl-5-[3-[4-(3-fluoro-5-methoxy-phenyl)piperazin-1-yl]-2-methyl-3-oxo-propyl]imidazolidine-2,4-dione]
IC50 (human ADAMTS6): > 100 nM
IC50 (rnADAMTS-5 (1-564-6H)): > 100 nM
IC50 (human ADAMTS-5): > 100 nM

COc1cc(F)cc(N2CCN(C(=O)[C@H](C)C[C@@]3(C)NC(=O)NC3=O)CC2)c1 (stereo in doubt) [Cpd 131, 5-[3-[4-(3-fluoro-5-methoxy-phenyl)piperazin-1-yl]-2-methyl-3-oxo-propyl]-5-methyl-imidazolidine-2,4-dione]
IC50 (human ADAMTS6): > 100 nM
IC50 (rnADAMTS-5 (1-564-6H)): > 100 nM
IC50 (human ADAMTS-5): > 100 nM

COc1cc(N2CCN(C(=O)CCC3(C4CC4)NC(=O)NC3=O)C[C@@H]2C)cc(F)c1F (stereo partly drawn) [Cpd 21, 5-cyclopropyl-5-[3-[(3S)-4-(3,4-difluoro-5-methoxy-phenyl)-3-methyl-piperazin-1-yl]-3-oxo-propyl]imidazolidine-2,4-dione]
IC50 (human ADAMTS6): 0.001 to 25 nM
IC50 (rnADAMTS-5 (1-564-6H)): 0.001 to 25 nM
IC50 (human MMP13 [1]): > 100 nM
IC50 (human TACE): > 100 nM
IC50 (human ADAMTS4): 50 to 100 nM
IC50 (human ADAMTS-5): 0.001 to 25 nM

COc1cc(F)cc(N2CCN(C(=O)CCC3(c4cccnc4)NC(=O)NC3=O)CC2)c1 (stereo not drawn) [Cpd 23, 5-[3-[4-(3-fluoro-5-methoxy-phenyl)piperazin-1-yl]-3-oxo-propyl]-5-(3-pyridyl)imidazolidine-2,4-dione]
IC50 (human ADAMTS6): 25 to 50 nM
IC50 (rnADAMTS-5 (1-564-6H)): 50 to 100 nM
IC50 (human MMP13 [1]): > 100 nM
IC50 (human TACE): > 100 nM
IC50 (human ADAMTS4): 50 to 100 nM
IC50 (human ADAMTS-5): 50 to 100 nM

COc1cc(OC)cc(N2CCN(C(=O)CCC3(C)NC(=O)NC3=O)C[C@@H]2C)c1 (stereo partly drawn) [Cpd 25, 5-[3-[(3 S)-4-(3,5-dimethoxyphenyl)-3-methyl-piperazin-1-yl]-3-oxo-propyl]-5-methyl-imidazolidine-2,4-dione]
IC50 (human ADAMTS6): 25 to 50 nM
IC50 (rnADAMTS-5 (1-564-6H)): > 100 nM
IC50 (human MMP13 [1]): > 100 nM
IC50 (human TACE): > 100 nM
IC50 (human ADAMTS4; [3]): > 100 nM
IC50 (human ADAMTS-5): > 100 nM

COc1cc(F)cc(N2CCN(C(=O)[C@@H](C)C[C@@]3(C4CC4)NC(=O)NC3=O)CC2)c1 [Cpd 26, (5 S)-5-cyclopropyl-5-[(2S)-3-[4-(3-fluoro-5-methoxy-phenyl)piperazin-1-yl]-2-methyl-3-oxo-propyl]imidazolidine-2,4-dione]
IC50 (human ADAMTS6): 0.001 to 25 nM
IC50 (rnADAMTS-5 (1-564-6H)): 0.001 to 25 nM
IC50 (human MMP13 [1]): > 100 nM
IC50 (human TACE): > 100 nM
IC50 (human ADAMTS4): 0.001 to 25 nM
IC50 (human ADAMTS-5): 0.001 to 25 nM

COc1cc(F)cc(N2CCN(C(=O)[C@@H](C)C[C@@]3(C)NC(=O)NC3=O)CC2)c1 [Cpd 27, (5R)-5-[(2S)-3-[4-(3-fluoro-5-methoxy-phenyl)piperazin-1-yl]-2-methyl-3-oxo-propyl]-5-methyl-imidazolidine-2,4-dione]
IC50 (human ADAMTS6): 0.001 to 25 nM
IC50 (rnADAMTS-5 (1-564-6H)): 25 to 50 nM
IC50 (human MMP13 [1]): > 100 nM
IC50 (human TACE): > 100 nM
IC50 (human ADAMTS4): 25 to 50 nM
IC50 (human ADAMTS-5): 25 to 50 nM

COc1cc(N2CCN(C(=O)CCC3(c4cccnc4)NC(=O)NC3=O)CC2)cc(F)c1F (stereo not drawn) [Cpd 28, 5-[3-[4-(3,4-difluoro-5-methoxy-phenyl)piperazin-1-yl]-3-oxo-propyl]-5-(3-pyridyl)imidazolidine-2,4-dione]
IC50 (human ADAMTS6): 25 to 50 nM
IC50 (rnADAMTS-5 (1-564-6H)): 50 to 100 nM
IC50 (human MMP13 [1]): > 100 nM
IC50 (human TACE): > 100 nM
IC50 (human ADAMTS4; [3]): > 100 nM
IC50 (human ADAMTS-5): > 100 nM

COc1cc(N2CCN(C(=O)CC[C@@]3(C)NC(=O)NC3=O)CC2C(F)(F)F)ccc1Cl (stereo partly drawn) [Cpd 118, (5R)-5-[3-[4-(4-chloro-3-methoxy-phenyl)-3-(trifluoromethyl)piperazin-1-yl]-3-oxo-propyl]-5-methyl-imidazolidine-2,4-dione]
IC50 (human MMP14): > 100 nM
IC50 (human ADAMTS6): 0.001 to 25 nM
IC50 (human TACE): > 100 nM
IC50 (human ADAMTS4; [3]): > 100 nM
IC50 (human MMP13 [2]): > 100 nM
IC50 (human ADAMTS-5): > 100 nM

COc1cc(N2CCN(C(=O)CC[C@@]3(C)NC(=O)NC3=O)C[C@@H]2C)cc(F)c1Cl [Cpd 119, (5R)-5-[3-[(3 S)-4-(4-chloro-3-fluoro-5-methoxy-phenyl)-3-methyl-piperazin-1-yl]-3-oxo-propyl]-5-methyl-imidazolidine-2,4-dione]
IC50 (human MMP14): > 100 nM
IC50 (human ADAMTS6): 0.001 to 25 nM
IC50 (human TACE): > 100 nM
IC50 (human ADAMTS4; [3]): > 100 nM
IC50 (human MMP13 [2]): > 100 nM
IC50 (human ADAMTS-5): 0.001 to 25 nM

COc1cc(N2CCN(C(=O)[C@@H](C)C[C@@]3(C)NC(=O)NC3=O)CC2)cc(F)c1Cl [Cpd 122, (5R)-5-[(2S)-3-[4-(4-chloro-3-fluoro-5-methoxy-phenyl)piperazin-1-yl]-2-methyl-3-oxo-propyl]-5-methyl-imidazolidine-2,4-dione]
IC50 (human MMP14): > 100 nM
IC50 (human ADAMTS6): 0.001 to 25 nM
IC50 (human TACE): > 100 nM
IC50 (human ADAMTS4): 50 to 100 nM
IC50 (human MMP13 [2]): > 100 nM
IC50 (human ADAMTS-5): 0.001 to 25 nM

COC[C@]1(C[C@H](C)C(=O)N2CCN(c3cc(F)c(Cl)c(OC)c3)CC2)NC(=O)NC1=O [Cpd 123, (5 S)-5-[(2S)-3-[4-(4-chloro-3-fluoro-5-methoxy-phenyl)piperazin-1-yl]-2-methyl-3-oxo-propyl]-5-(methoxymethyl)imidazolidine-2,4-dione]
IC50 (human MMP14): > 100 nM
IC50 (human ADAMTS6): 0.001 to 25 nM
IC50 (human TACE): > 100 nM
IC50 (human ADAMTS4): 50 to 100 nM
IC50 (human MMP13 [2]): > 100 nM
IC50 (human ADAMTS-5): 0.001 to 25 nM

COc1cc(N2CCN(C(=O)CC[C@]3(C)NC(=O)NC3=O)C[C@@H]2C)ccc1Cl [Cpd 146, (5 S)-5-[3-[(3 S)-4-(4-chloro-3-methoxy-phenyl)-3-methyl-piperazin-1-yl]-3-oxo-propyl]-5-methyl-imidazolidine-2,4-dione]
IC50 (human MMP14): > 100 nM
IC50 (human ADAMTS6): > 100 nM
IC50 (human TACE): > 100 nM
IC50 (human ADAMTS4; [3]): > 100 nM
IC50 (human MMP13 [2]): > 100 nM
IC50 (human ADAMTS-5): > 100 nM

COc1cc(N2CCN(C(=O)CC[C@H]3NC(=O)NC3=O)CC2)cc(Cl)c1F [Cpd 147, (5R)-5-[3-[4-(3-chloro-4-fluoro-5-methoxy-phenyl)piperazin-1-yl]-3-oxo-propyl]imidazolidine-2,4-dione]
IC50 (human MMP14): > 100 nM
IC50 (human ADAMTS6): 0.001 to 25 nM
IC50 (human TACE): > 100 nM
IC50 (human ADAMTS4; [3]): > 100 nM
IC50 (human MMP13 [2]): > 100 nM
IC50 (human ADAMTS-5): > 100 nM

COc1cc(N2CCN(C(=O)CC[C@H]3NC(=O)NC3=O)C[C@@H]2C)cc(Cl)c1F [Cpd 148, (5R)-5-[3-[(3 S)-4-(3-chloro-4-fluoro-5-methoxy-phenyl)-3-methyl-piperazin-1-yl]-3-oxo-propyl]imidazolidine-2,4-dione]
IC50 (human MMP14): > 100 nM
IC50 (human ADAMTS6): 0.001 to 25 nM
IC50 (human TACE): > 100 nM
IC50 (human ADAMTS4; [3]): > 100 nM
IC50 (human MMP13 [2]): > 100 nM
IC50 (human ADAMTS-5): 25 to 50 nM

CCOc1cc(N2CCN(C(=O)CC[C@H]3NC(=O)NC3=O)C[C@@H]2C)cc(OC)c1Cl [Cpd 150, (5R)-5-[3-[(3 S)-4-(4-chloro-3-ethoxy-5-methoxy-phenyl)-3-methyl-piperazin-1-yl]-3-oxo-propyl]imidazolidine-2,4-dione]
IC50 (human MMP14): > 100 nM
IC50 (human ADAMTS6): 0.001 to 25 nM
IC50 (human TACE): > 100 nM
IC50 (human ADAMTS4; [3]): > 100 nM
IC50 (human MMP13 [2]): > 100 nM
IC50 (human ADAMTS-5): > 100 nM
